Data as given in patent publication US20210284668A1, “GOLD (I)-PHOSPHINE 1,2,3-TRIAZOLE DERIVATIVES WITH ANTIBIOTIC PROPERTIES” (Centre National de la Recherche Scientifique, priority 2018, published 2021).
Several values for one entry are separate records, joined by “and”; a condition that tells them apart may be missing. Equal entries are not always repeated.

Experiments:
E. faecium ATCC19434T = experiment: MIC by microdilution, E. faecium ATCC19434T; format: cell-based, Enterococcus faecium; set-up: unit not given here; conditions: E. faecium ATCC19434T (wild-type), in duplicate
Procedure: (§1) The antibacterial profile of each derivative was evaluated by the standard microdilution method for susceptibility testing on 16 different strains, following the guidelines of CLSI. The selected panel included: • S. aureus ATCC25923 (MecA negative, wild-type) • S. aureus ATCC29213 (MecA negative, wild-type) • S. aureus ATCC700699 (MecA positive, glycopeptide resistant) • S. aureus ST20131365 (MecA positive, glycopeptide resistant) • S. epidermidis ATCC14990 (MecA negative, wild-type) • S. epidermidis ATCC35984 (MecA positive) • S. epidermidis ST20140436 (MecA positive, glycopeptide resistant) • S. epidermidis ST20150446 (MecA positive, glycopeptide resistant) • E. faecalis JH2-2 (wild-type) • E. faecalis UCN41 (VanA positive, glycopeptide resistant) • E. faecalis V583 (VanB positive, glycopeptide resistant) • E. faecium ATCC19434T (wild-type) • E. faecium BM4147 (VanA positive, glycopeptide resistant) • E. faecium AUS0004 (VanB positive, glycopeptide resistant) • E. coli ATCC25922 (wild-type) • Clostridium difficile ATCC9689 (wild-type)
(§2) Both series issued from the SAR study were evaluated for their antibacterial activity on a panel of characterized strains obtained from the French National Reference Centers for Staphylococci (Lyon, Pr. Fréderique Laurent) and for Enterococci (Caen, Pr. Vincent Cattoir), respectively. As shown in the following tables, both series contain very active compounds on multi-resistant Gram-positive bacteria (Minimal Inhibitory Concentrations lower than comparator antibiotic ampicillin). Furthermore, a very important antibacterial effect has been shown too on a strain of Clostridium difficile, a Gram-positive, spore-forming, bacillus responsible for post-antibiotic diarrhoae.
(§3) The antibacterial activity of test compounds was evaluated on a selected panel of Gram-positive (4 Staphylococcus aureus, 4 Staphylococcus epidermidis, 3 Enterococcus faecalis, 3 Enterococcus faecium, 1 Clostridium difficile) and Gram-negative strains (1 Escherichia coli, 1 Klebsiella pneumoniae, 1 Pseudomonas aeruginosa, 1 Acinetacter baumannii) with known features of antibiotic resistance (from wild-type susceptibility to multi-drug resistance). The Minimal Inhibitory Concentration (MIC) of test compounds was determined in duplicate by the microdilution method in 96-well microplates with a final volume of 100 μL per well and Mueller-Hinton broth as the growth medium, as recommended by the CLSI (Clinical and Laboratory Standards Institute, document Mo7-A10, USA).

[1] = system: panel of Gram-positive and Gram-negative strains; experiment: Antibacterial profile on the selected panel of strains; format: cell-based; conditions: summary of Tables 1-12
Procedure: as §1, §2, §3

E. faecalis UCN41 = experiment: MIC by microdilution, E. faecalis UCN41; format: cell-based, Enterococcus faecalis; set-up: unit not given here; conditions: E. faecalis UCN41 (VanA positive, glycopeptide resistant), in duplicate
Procedure: as §1, §2, §3

S. aureus ST20131365 = experiment: MIC by microdilution, S. aureus ST20131365; format: cell-based, Staphylococcus aureus; conditions: S. aureus ST20131365 (MecA positive, glycopeptide resistant), in duplicate
Procedure: as §1, §2, §3

E. faecalis V583 = experiment: MIC by microdilution, E. faecalis V583; format: cell-based, Enterococcus faecalis; conditions: E. faecalis V583 (VanB positive, glycopeptide resistant), in duplicate
Procedure: as §1, §2, §3

S. epidermidis ATCC35984 = experiment: MIC by microdilution, S. epidermidis ATCC35984; format: cell-based, Staphylococcus epidermidis; conditions: S. epidermidis ATCC35984 (MecA positive), in duplicate
Procedure: as §1, §2, §3

E. coli ATCC25922 = experiment: MIC by microdilution, E. coli ATCC25922; format: cell-based, Escherichia coli; conditions: E. coli ATCC25922 (wild-type), in duplicate
Procedure: as §1, §2, §3

E. faecium BM4147 = experiment: MIC by microdilution, E. faecium BM4147; format: cell-based, Enterococcus faecium; set-up: unit not given here; conditions: E. faecium BM4147 (VanA positive, glycopeptide resistant), in duplicate
Procedure: as §1, §2, §3

[2] = system: Clostridium difficile ATCC700057; experiment: MIC by microdilution, Clostridium difficile; format: cell-based; conditions: strain ATCC70057 [sic] (Tables 1-2) / ATCC700057 (Tables 3-10), in duplicate
S. epidermidis ATCC14990 = experiment: MIC by microdilution, S. epidermidis ATCC14990; format: cell-based, Staphylococcus epidermidis; conditions: S. epidermidis ATCC14990 (MecA negative, wild-type), in duplicate
Procedure: as §1, §2, §3

[3] = system: S. epidermidis ST20140436; experiment: MIC by microdilution, S. epidermidis ST20140436; format: cell-based, Staphylococcus epidermidis; conditions: S. epidermidis ST20140436 (MecA positive, glycopeptide resistant), in duplicate
Procedure: as §1, §2, §3

E. faecium AUS0004 = experiment: MIC by microdilution, E. faecium AUS0004; format: cell-based, Enterococcus faecium; conditions: E. faecium AUS0004 (VanB positive, glycopeptide resistant), in duplicate
Procedure: as §1, §2, §3

S. aureus ATCC700699 = experiment: MIC by microdilution, S. aureus ATCC700699; format: cell-based, Staphylococcus aureus; set-up: unit not given here; conditions: S. aureus ATCC700699 (MecA positive, glycopeptide resistant), in duplicate
Procedure: as §1, §2, §3

E. faecalis JH2-2 = experiment: MIC by microdilution, E. faecalis JH2-2; format: cell-based, Enterococcus faecalis; set-up: unit not given here; conditions: E. faecalis JH2-2 (wild-type), in duplicate
Procedure: as §1, §2, §3

[4] = system: S. epidermidis ST20150446; experiment: MIC by microdilution, S. epidermidis ST20150446; format: cell-based, Staphylococcus epidermidis; conditions: S. epidermidis ST20150446 (MecA positive, glycopeptide resistant), in duplicate
Procedure: as §1, §2, §3

S. aureus ATCC25923 = experiment: MIC by microdilution, S. aureus ATCC25923; format: cell-based, Staphylococcus aureus; conditions: S. aureus ATCC25923 (MecA negative, wild-type), Mueller-Hinton broth, in duplicate
Procedure: as §1, §2, §3

S. aureus ATCC29213 = experiment: MIC by microdilution, S. aureus ATCC29213; format: cell-based, Staphylococcus aureus; conditions: S. aureus ATCC29213 (MecA negative, wild-type), Mueller-Hinton broth, in duplicate
Procedure: as §1, §2, §3

| SMILES | Minimal Inhibitory Concentration (MIC) (E. faecium ATCC19434T) | antimicrobial / antibacterial activity (in words) [1] | Minimal Inhibitory Concentration (MIC) (E. faecalis UCN41) | Minimal Inhibitory Concentration (MIC) (S. aureus ST20131365) | Minimal Inhibitory Concentration (MIC) (E. faecalis V583) | Minimal Inhibitory Concentration (MIC) (S. epidermidis ATCC35984) | Minimal Inhibitory Concentration (MIC) (E. coli ATCC25922) | Minimal Inhibitory Concentration (MIC) (E. faecium BM4147) | Minimal Inhibitory Concentration (MIC) [2] | Minimal Inhibitory Concentration (MIC) (S. epidermidis ATCC14990) | Minimal Inhibitory Concentration (MIC) [3] | Minimal Inhibitory Concentration (MIC) (E. faecium AUS0004) | Minimal Inhibitory Concentration (MIC) (S. aureus ATCC700699) | Minimal Inhibitory Concentration (MIC) (E. faecalis JH2-2) | Minimal Inhibitory Concentration (MIC) [4] | Minimal Inhibitory Concentration (MIC) (S. aureus ATCC25923) | Minimal Inhibitory Concentration (MIC) (S. aureus ATCC29213) |
| --- | --- | --- | --- | --- | --- | --- | --- | --- | --- | --- | --- | --- | --- | --- | --- | --- | --- |
| CC[P+](CC)(CC)[Au-][c]1nn[nH]c1-c1cccc(C(=O)NC(C(=O)NC2C(=O)N3C2SC(C)(C)C3C(=O)O)c2ccccc2)c1 (centres unmarked) [TMB12] | 0.5 | have antimicrobial activity | 0.5 and 1 | 0.5 | 1 | ≤0.06 | >8 | 1 | ≤0.06 | ≤0.06 | ≤0.06 | 0.5 | 0.125 and 0.25 | 0.5 | ≤0.06 |  |  |
| CC[P+](CC)(CC)[Au-][c]1nn[nH]c1-c1cccc(C(=O)NC(C(=O)O)c2ccccc2)c1 (centres unmarked) [TMB20] | 0.25 | have antimicrobial activity | 0.25 | 0.125 | 0.25 and 0.5 | ≤0.06 | >8 | 0.25 and 0.5 | ≤0.06 | ≤0.06 | ≤0.06 | 0.25 | 0.125 | 0.25 |  | 0.125 |  |
| CC[P+](CC)(CC)[Au-][c]1nn[nH]c1CCC(=O)NC(C(=O)O)c1ccccc1 (centres unmarked) [TMB21] | 0.25 | have antimicrobial activity | 0.25 | 0.125 | 0.25 and 0.5 | ≤0.06 | >8 | 0.25 and 0.5 | ≤0.06 | ≤0.06 | ≤0.06 | 0.25 | 0.125 | 0.25 | ≤0.06 |  |  |
| CC[P+](CC)(CC)[Au-][c]1nn[nH]c1CNC(=O)NC(C(=O)NC1C(=O)N2C1SC(C)(C)C2C(=O)O)c1ccccc1 (centres unmarked) [TMB24] | 0.5 | have antimicrobial activity | 0.25 | 0.25 | 0.25 and 0.5 | 0.125 | >8 | 0.5 | ≤0.06 | ≤0.06 |  | 0.5 | 0.125 and 0.25 | 0.25 and 0.5 |  | 0.125 |  |
| CC[P+](CC)(CC)[Au-][c]1nn[nH]c1CN1CCOCC1 [TMB32] | 0.25 | have antimicrobial activity | 0.25 | 0.125 | 0.25 | ≤0.06 | >8 | 0.25 | ≤0.06 | ≤0.06 |  | 0.25 | 0.125 and 0.25 | 0.125 | 0.125 and 0.25 |  |  |
| CC[P+](CC)(CC)[Au-][c]1nn[nH]c1CCS(N)(=O)=O [TMB36] | 0.25 | have antimicrobial activity | 0.25 |  | 0.5 | ≤0.06 | >8 | 0.5 | ≤0.06 | ≤0.06 | ≤0.06 | 0.25 | 0.125 | 0.25 | ≤0.06 | ≤0.06 |  |
| CC[P+](CC)(CC)[Au-][c]1nn[nH]c1CCC(=O)N[C@H](CO)C(=O)O [TMB38] | ≤0.06 | have antimicrobial activity | 0.125 | ≤0.06 | 0.125 | ≤0.06 |  | 0.125 | 0.125 and 0.25 | ≤0.06 | ≤0.06 | 0.125 | 0.125 | 0.125 | ≤0.06 | ≤0.06 |  |
| CC[P+](CC)(CC)[Au-][c]1nn[nH]c1-c1ccc(C(=O)O)cn1 [TMB39] | 0.125 | have antimicrobial activity | 0.25 | ≤0.06 | 0.25 | ≤0.06 |  | 0.125 | 0.25 and 0.5 | ≤0.06 | ≤0.06 | 0.5 | ≤0.06 | 0.25 | ≤0.06 | ≤0.06 | ≤0.06 |
